Source: patent US20220220128A1, “HETEROCYCLIC COMPOUNDS AS KINASE INHIBITORS, COMPOSITIONS COMPRISING THE HETEROCYCLIC COMPOUND, AND METHODS OF USE THEREOF” (JS Innopharm (Shanghai) Ltd, priority 2019, published 2022)

Tests used:
human KDR kinase = molecular target: T1, human KDR kinase (Homo sapiens, UniProt P35968); test: KDR Kinase Assay (LanthaScreen TR-FRET enzymatic assay); format: biochemical; details: 1.2 nM KDR, 92 μM ATP
T1 construct: purchased Carna 08-191
Method in brief: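 TR-FRET enzymatic format: after 15-min room-temperature compound pretreatment, 1.2 nM human KDR phosphorylated 3 μM FAM-P22 with 92 μM ATP (HEPES pH 7.5, 28° C., one hour). Reactions were quenched with EDTA buffer. IC50 came from nonlinear sigmoid fits of percent-of-vehicle signal ratios.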

TT cells = test: TT Cell Proliferation Assay (WST-8, 8 days); format: cell-based; details: Homo sapiens, TT, 192 h, growth inhibition in TT cells, read-out: TT Cellular Activity
Method in brief: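 IC50 was derived from absorbance at 450 nm after 5 h with WST-8, following 8 days' incubation at 37 °C. Final compound levels spanned 0.0005–5 μM in 0.5% DMSO. TT cells were seeded at 6,000 per well in 10% FBS RPMI-1640 and left to attach for 24 h beforehand.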

human RET kinase = molecular target: T2, human RET kinase (Homo sapiens, UniProt P07949); test: RET Kinase Assay (LanthaScreen TR-FRET enzymatic assay); format: biochemical; details: 7 nM RET, 23 μM ATP
T2 construct: purchased Carna 08-159
T2 sequence (P07949 29-1114): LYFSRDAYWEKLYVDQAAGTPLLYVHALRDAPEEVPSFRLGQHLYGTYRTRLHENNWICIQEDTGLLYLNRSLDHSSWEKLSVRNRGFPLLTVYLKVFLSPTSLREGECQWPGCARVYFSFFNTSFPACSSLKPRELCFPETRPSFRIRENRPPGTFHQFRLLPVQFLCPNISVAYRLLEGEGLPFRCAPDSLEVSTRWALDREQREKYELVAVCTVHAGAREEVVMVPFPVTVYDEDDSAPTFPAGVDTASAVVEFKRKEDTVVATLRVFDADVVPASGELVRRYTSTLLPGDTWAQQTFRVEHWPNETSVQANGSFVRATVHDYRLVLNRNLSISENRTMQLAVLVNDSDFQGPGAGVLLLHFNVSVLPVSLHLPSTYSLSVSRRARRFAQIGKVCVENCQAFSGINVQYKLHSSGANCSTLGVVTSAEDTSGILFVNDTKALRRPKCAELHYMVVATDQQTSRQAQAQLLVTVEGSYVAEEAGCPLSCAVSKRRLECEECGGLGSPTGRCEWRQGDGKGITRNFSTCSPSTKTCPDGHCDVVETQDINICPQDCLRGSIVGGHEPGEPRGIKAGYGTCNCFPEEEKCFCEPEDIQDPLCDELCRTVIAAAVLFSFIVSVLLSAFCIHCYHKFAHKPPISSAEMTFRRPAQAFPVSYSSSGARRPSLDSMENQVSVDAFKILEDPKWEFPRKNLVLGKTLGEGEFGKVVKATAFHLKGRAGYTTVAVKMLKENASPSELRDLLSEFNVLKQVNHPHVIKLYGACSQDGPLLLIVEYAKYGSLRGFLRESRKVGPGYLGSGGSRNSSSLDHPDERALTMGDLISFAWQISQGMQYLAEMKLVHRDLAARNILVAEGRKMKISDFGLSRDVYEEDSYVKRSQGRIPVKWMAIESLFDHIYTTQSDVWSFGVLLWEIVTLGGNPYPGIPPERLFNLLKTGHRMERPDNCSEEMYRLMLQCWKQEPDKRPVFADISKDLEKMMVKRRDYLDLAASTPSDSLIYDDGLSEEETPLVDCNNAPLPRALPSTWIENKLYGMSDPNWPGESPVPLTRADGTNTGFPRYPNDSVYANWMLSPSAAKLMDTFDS
Method in brief: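 TR-FRET enzymatic read-out using 23 μM ATP, 3 μM FAM-P2 substrate and 7 nM human RET, after 15-min compound pretreatment at room temperature and a 1 h reaction at 28° C in HEPES pH 7.5 buffer. Percent of DMSO control fitted to nonlinear sigmoid curves for IC50.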

T1 sequence (P35968 20-1356): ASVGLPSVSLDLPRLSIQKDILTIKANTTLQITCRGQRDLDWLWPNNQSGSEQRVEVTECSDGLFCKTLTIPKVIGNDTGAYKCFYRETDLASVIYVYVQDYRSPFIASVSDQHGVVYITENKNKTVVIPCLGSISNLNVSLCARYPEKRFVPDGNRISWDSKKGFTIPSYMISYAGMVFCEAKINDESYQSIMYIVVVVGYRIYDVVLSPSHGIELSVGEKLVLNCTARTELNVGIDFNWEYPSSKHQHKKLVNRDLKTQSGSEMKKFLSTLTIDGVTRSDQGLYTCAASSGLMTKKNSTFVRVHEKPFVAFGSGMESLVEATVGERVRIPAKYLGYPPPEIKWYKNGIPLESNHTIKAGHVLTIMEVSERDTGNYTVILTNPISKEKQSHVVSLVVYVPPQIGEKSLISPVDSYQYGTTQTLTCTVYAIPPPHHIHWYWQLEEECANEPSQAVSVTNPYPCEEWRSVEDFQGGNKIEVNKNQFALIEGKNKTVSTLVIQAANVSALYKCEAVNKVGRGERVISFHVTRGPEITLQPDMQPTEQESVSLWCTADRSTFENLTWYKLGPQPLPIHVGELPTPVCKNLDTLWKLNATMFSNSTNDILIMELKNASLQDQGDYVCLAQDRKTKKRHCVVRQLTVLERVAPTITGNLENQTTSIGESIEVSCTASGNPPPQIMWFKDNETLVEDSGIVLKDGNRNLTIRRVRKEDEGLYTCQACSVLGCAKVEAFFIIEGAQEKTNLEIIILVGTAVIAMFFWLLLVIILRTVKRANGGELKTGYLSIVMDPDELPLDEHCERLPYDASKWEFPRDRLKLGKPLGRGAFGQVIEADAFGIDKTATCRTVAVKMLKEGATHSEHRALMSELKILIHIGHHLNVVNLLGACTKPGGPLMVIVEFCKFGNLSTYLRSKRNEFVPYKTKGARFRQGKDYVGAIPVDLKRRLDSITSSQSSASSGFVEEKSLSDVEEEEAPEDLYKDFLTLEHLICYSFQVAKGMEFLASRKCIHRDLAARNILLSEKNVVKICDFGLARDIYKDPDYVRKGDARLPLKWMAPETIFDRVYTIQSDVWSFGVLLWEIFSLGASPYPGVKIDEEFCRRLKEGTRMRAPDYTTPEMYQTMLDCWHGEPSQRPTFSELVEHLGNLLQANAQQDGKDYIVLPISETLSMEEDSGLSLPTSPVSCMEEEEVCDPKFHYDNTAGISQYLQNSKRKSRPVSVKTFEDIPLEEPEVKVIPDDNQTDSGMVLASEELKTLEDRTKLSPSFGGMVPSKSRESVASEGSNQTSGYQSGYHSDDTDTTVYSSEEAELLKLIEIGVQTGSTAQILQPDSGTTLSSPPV

Cn1cc(-c2cc(-c3ccc(N4C[C@@H]5[C@H](C4)[C@@H]5NS(=O)(=O)c4c(F)cccc4Cl)nc3)c3c(C#N)cnn3c2)cn1 [Example 35, 2-chloro-N-((1R,5S,6r)-3-(5-(3-cyano-6-(1-methyl-1H-pyrazol-4-yl)pyrazolo[1,5-a]pyridin-4-yl)pyridin-2-yl)-3-azabicyclo[3.1.0]hexan-6-yl)-6-fluorobenzenesulfonamide]
IC50 (human KDR kinase): 10 to 50 nM | IC50 (TT cells): 10 to 50 nM | IC50 (human RET kinase): ≤ 10 nM

Cn1cc(-c2cc(-c3ccc(N4C[C@@H]5[C@@H](CNC(=O)c6ncc(F)cc6Cl)[C@@H]5C4)nc3)c3c(C#N)cnn3c2)cn1 [Example 85, 3-chloro-N-(((1R,5S,6s)-3-(5-(3-cyano-6-(1-methyl-1H-pyrazol-4-yl)pyrazolo[1,5-a]pyridin-4-yl)pyridin-2-yl)-3-azabicyclo[3.1.0]hexan-6-yl)methyl)-5-fluoropicolinamide]
IC50 (human KDR kinase): ≤ 10 nM | IC50 (TT cells): ≤ 10 nM | IC50 (human RET kinase): ≤ 10 nM

CC(C)C(O)C(=O)NC[C@H]1[C@H]2CN(c3ccc(-c4cc(-c5cnn(C)c5)cn5ncc(C#N)c45)cn3)C[C@@H]12 (stereo partly drawn) [Example 77, N-(((1R,5S,6r)-3-(5-(3-cyano-6-(1-methyl-1H-pyrazol-4-yl)pyrazolo[1,5-a]pyridin-4-yl)pyridin-2-yl)-3-azabicyclo[3.1.0]hexan-6-yl)methyl)-2-hydroxy-3-methylbutanamide]
IC50 (human KDR kinase): ≤ 10 nM | IC50 (TT cells): ≤ 10 nM | IC50 (human RET kinase): ≤ 10 nM

CCOc1cc(-c2cnc(N3C[C@@H]4C[C@@](C)(NC(=O)c5ncccc5Cl)C[C@@H]4C3)cn2)c2c(C#N)cnn2c1 [Example 60, 3-chloro-N-((3aR,5s,6aS)-2-(5-(3-cyano-6-ethoxypyrazolo[1,5-a]pyridin-4-yl)pyrazin-2-yl)-5-methyloctahydrocyclopenta[c]pyrrol-5-yl)picolinamide]
IC50 (human KDR kinase): > 100 nM | IC50 (TT cells): 10 to 50 nM | IC50 (human RET kinase): ≤ 10 nM

COc1ccc(CN2C[C@@H]3CN(c4ccc(-c5cc(OCC(C)(C)O)cn6ncc(C#N)c56)cn4)C[C@@H]3C2)cn1 [Example 14, 6-(2-hydroxy-2-methylpropoxy)-4-(6-((3aR,6aS)-5-((6-methoxypyridin-3-yl)methyl)hexahydropyrrolo[3,4-c]pyrrol-2(1H)-yl)pyridin-3-yl)pyrazolo[1,5-a]pyridine-3-carbonitrile]
IC50 (human KDR kinase): > 100 nM | IC50 (TT cells): 10 to 50 nM | IC50 (human RET kinase): ≤ 10 nM

CC(C)(O)COc1cc(-c2ccc(N3C[C@@H]4C[C@@](C)(NC(=O)c5ncccc5C#N)C[C@@H]4C3)nc2)c2c(C#N)cnn2c1 [Example 127, 3-cyano-N-((3aR,5s,6aS)-2-(5-(3-cyano-6-(2-hydroxy-2-methylpropoxy)pyrazolo[1,5-a]pyridin-4-yl)pyridin-2-yl)-5-methyloctahydrocyclopenta[c]pyrrol-5-yl)picolinamide]
IC50 (human KDR kinase): > 100 nM | IC50 (TT cells): 10 to 50 nM | IC50 (human RET kinase): ≤ 10 nM

Cn1ccc(-c2cc(-c3cnc(N4C[C@@H]5C[C@@](C)(NC(=O)c6c(F)cccc6Cl)C[C@@H]5C4)cn3)c3c(C#N)cnn3c2)n1 [Example 100, 2-chloro-N-((3aR,5s,6aS)-2-(5-(3-cyano-6-(1-methyl-1H-pyrazol-3-yl)pyrazolo[1,5-a]pyridin-4-yl)pyrazin-2-yl)-5-methyloctahydrocyclopenta[c]pyrrol-5-yl)-6-fluorobenzamide]
IC50 (human KDR kinase): 10 to 50 nM | IC50 (TT cells): ≤ 10 nM | IC50 (human RET kinase): ≤ 10 nM

CCOc1cc(-c2ccc(N3C[C@@H]4C[C@@](C)(NC(=O)c5nc(C)ccc5Cl)C[C@@H]4C3)nc2)c2c(C#N)cnn2c1 [Example 67, 3-chloro-N-((3aR,5s,6aS)-2-(5-(3-cyano-6-ethoxypyrazolo[1,5-a]pyridin-4-yl)pyridin-2-yl)-5-methyloctahydrocyclopenta[c]pyrrol-5-yl)-6-methylpicolinaniide]
IC50 (human KDR kinase): > 100 nM | IC50 (TT cells): 50 to 100 nM | IC50 (human RET kinase): ≤ 10 nM

Cn1ccc(-c2cc(-c3ccc(N4C[C@@H]5C[C@@](C)(NC(=O)c6c(F)cccc6Cl)C[C@@H]5C4)nc3)c3c(C#N)cnn3c2)n1 [Example 93, 2-chloro-N-((3aR,5s,6aS)-2-(5-(3-cyano-6-(1-methyl-1H-pyrazol-3-yl)pyrazolo[1,5-a]pyridin-4-yl)pyridin-2-yl)-5-methyloctahydrocyclopenta[c]pyrrol-5-yl)-6-fluorobenzamide]
IC50 (human KDR kinase): 10 to 50 nM | IC50 (TT cells): 10 to 50 nM | IC50 (human RET kinase): ≤ 10 nM

Cn1cc(-c2cc(-c3ccc(N4C[C@@H]5C[C@@](C)(NC(=O)c6c(F)cccc6Cl)C[C@@H]5C4)nc3)c3c(C#N)cnn3c2)cn1 [Example 57, 2-chloro-N-((3aR,5s,6aS)-2-(5-(3-cyano-6-(1-methyl-1H-pyrazol-4-yl)pyrazolo[1,5-a]pyridin-4-yl)pyridin-2-yl)-5-methyloctahydro-cyclopenta[c]pyrrol-5-yl)-6-fluorobenzamide]
IC50 (human KDR kinase): > 100 nM | IC50 (TT cells): ≤ 10 nM | IC50 (human RET kinase): 10 to 50 nM

Cn1cc(-c2cc(-c3ccc(N4C[C@H]5CN(C(=O)C(O)c6ccccc6)C[C@H]5C4)nc3)c3c(C#N)cnn3c2)cn1 (stereo partly drawn) [Example 3, 4-(6-((3aR,6aS)-5-(2-hydroxy-2-phenylacetyl)hexahydropyrrolo[3,4-c]pyrrol-2(1H)-yl)pyridin-3-yl)-6-(1-methyl-1H-pyrazol-4-yl)pyrazolo[1,5-a]pyridine-3-carbonitrile]
IC50 (human KDR kinase): 10 to 50 nM | IC50 (TT cells): 10 to 50 nM | IC50 (human RET kinase): ≤ 10 nM

Cn1ccc(-c2cc(-c3ccc(N4C[C@@H]5C[C@@](C)(NS(=O)(=O)c6c(F)cccc6Cl)C[C@@H]5C4)nc3)c3c(C#N)cnn3c2)n1 [Example 178, 2-chloro-N-((3aR,5s,6aS)-2-(5-(3-cyano-6-(1-methyl-1H-pyrazol-3-yl)pyrazolo[1,5-a]pyridin-4-yl)pyridin-2-yl)-5-methyloctahydrocyclopenta[c]pyrrol-5-yl)-6-fluorobenzenesulfonamide]
IC50 (human KDR kinase): 10 to 50 nM | IC50 (TT cells): ≤ 10 nM | IC50 (human RET kinase): ≤ 10 nM

Cn1cc(-c2cc(-c3ccc(N4C[C@@H]5[C@@H](CNC(=O)C(C)(C)C)[C@@H]5C4)nc3)c3c(C#N)cnn3c2)cn1 [Example 87, N-(((1R,5S,6s)-3-(5-(3-cyano-6-(1-methyl-1H-pyrazol-4-yl)pyrazolo[1,5-a]pyridin-4-yl)pyridin-2-yl)-3-azabicyclo[3.1.0]hexan-6-yl)methyl)pivalamid]
IC50 (human KDR kinase): 10 to 50 nM | IC50 (TT cells): ≤ 10 nM | IC50 (human RET kinase): ≤ 10 nM

Cn1cc(-c2cc(-c3ccc(N4C[C@@H]5[C@H](C4)[C@H]5NC(=O)c4ncccc4C(F)(F)F)nc3)c3c(C#N)cnn3c2)cn1 [Example 21, N-((1R,5S,6s)-3-(5-(3-cyano-6-(1-methyl-1H-pyrazol-4-yl)pyrazolo[1,5-a]pyridin-4-yl)pyridin-2-yl)-3-azabicyclo[3.1.0]hexan-6-yl)-3-(trifluoromethyl)picolinamide]
IC50 (human KDR kinase): ≤ 10 nM | IC50 (TT cells): 10 to 50 nM | IC50 (human RET kinase): ≤ 10 nM

CCOc1cc(-c2ccc(N3C[C@@H]4C[C@@](C)(NC(=O)c5cc(F)ccc5C)C[C@@H]4C3)nc2)c2c(C#N)cnn2c1 [Example 69, N-((3aR,5s,6aS)-2-(5-(3-cyano-6-ethoxypyrazolo[1,5-a]pyridin-4-yl)pyridin-2-yl)-5-methyloctahydrocyclopenta[c]pyrrol-5-yl)-5-fluoro-2-methylbenzamide]
IC50 (human KDR kinase): > 100 nM | IC50 (TT cells): ≤ 10 nM | IC50 (human RET kinase): ≤ 10 nM
